# Experimental data published in patent publication US8163952B2, “RAR receptor agonist ligands and use thereof in human medicine and cosmetics” (Galderma Research & Development, priority 2007, dated 2012).
# Assays:
# RARγ = target: T1, RARγ (Homo sapiens, UniProt P13631); assay: Transactivation assay (luciferase reporter, crossed curves vs reference agonist, Schild regression); format: cell-based; conditions: HeLa stable transfectants, ERE-βGlob-Luc-SV-Neo reporter and RARγ ER-DBD-puro; 18 hours incubation; apparent Kd; read-out: RARγ Kdapp
# T1 sequence (P13631 185-454 limits assumed): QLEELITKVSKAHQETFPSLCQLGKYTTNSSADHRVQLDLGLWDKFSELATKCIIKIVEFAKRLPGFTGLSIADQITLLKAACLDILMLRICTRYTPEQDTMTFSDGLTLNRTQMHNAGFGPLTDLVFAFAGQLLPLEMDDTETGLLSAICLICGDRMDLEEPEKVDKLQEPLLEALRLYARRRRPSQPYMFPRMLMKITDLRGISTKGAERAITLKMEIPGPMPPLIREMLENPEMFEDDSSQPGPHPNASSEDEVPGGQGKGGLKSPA
# Description: (§1) This activity on RARα, β and γ receptors is measured in a transactivation test and quantified by means of the dissociation constant Kdapp (apparent).
# (§2) The activation of receptors with an agonist (activator) in HeLa cells leads to the expression of a reporter gene, luciferase, which, in the presence of a substrate, generates light. The activation of the receptors can thus be measured by quantifying the luminescence produced after incubation of the cells in the presence of a reference agonist. Inhibitory products will displace the agonist from its site, thus preventing activation of the receptor. The activity is measured by quantifying the decrease in light produced. This measurement makes it possible to determine the inhibitory activity of the compounds according to the invention.
# (§3) In this study, a constant is determined which represents the affinity of the molecules for the receptor. Since this value can fluctuate depending on the basal activity and the expression of the receptor, it is referred to as the Kd apparent (KdApp).
# (§4) To determine this constant, “crossed curves” of the test product against a reference agonist, 4-[2-(5,5,8,8-tetramethyl-5,6,7,8-tetrahydronaphthalen-2-yl)propenyl]benzoic acid, are realized in 96-well plates. The test product is used at 10 concentrations and the reference agonist at 7 concentrations. In each well, the cells are in contact with a concentration of the test product and with a concentration of the reference agonist, 4-[2-(5,5,8,8-tetramethyl-5,6,7,8-tetrahydronaphthalen-2-yl)]propenyl]benzoic acid. Measurements are also carried out for the total agonist control (4-[2-(5,5,8,8-tetramethyl-5,6,7,8-tetrahydro-naphthalen-2-yl)propenyl]benzoic acid) and the inverse agonist control, 4-{(E)-3[4-(4-tert-butylphenyl)-5,5,8,8-tetramethyl-5,6,7,8-tetrahydronaphthalen-2-yl]-3-oxopropenyl}benzoic acid.
# (§5) These AC50 values are used to calculate the Schild regression by plotting a straight line corresponding to the Schild equation (“Quantitation in receptor pharmacology” Tervy P. Kenakin, Receptors and Channels, 2001, 7, 371-385).
# (§6) The HeLa cell lines used are stable transfectants containing the ERE-βGlob-Luc-SV-Neo (reporter gene) and RAR (α, β, γ) ER-DBD-puro plasmids. These cells are seeded in 96-well plates at a rate of 10 000 cells per well in 100 μl of DMEM medium without phenol red, supplemented with 10% of defatted calf serum. The plates are then incubated at 37° C., 7% CO2, for 4 hours.
# (§7) The plates are then incubated for 18 hours at 37° C., 7% CO2. The culture medium is removed by turning the plates over, and 100 μl of a 1:1 PBS/luciferin mixture are added to each well. After 5 minutes, the plates are read using a luminescence reader.
# RARβ = target: T2, RARβ (Homo sapiens, UniProt P10826); assay: as above; format: cell-based; conditions: HeLa stable transfectants, ERE-βGlob-Luc-SV-Neo reporter and RARβ ER-DBD-puro; 18 hours incubation; apparent Kd; read-out: RARβ Kdapp
# T2 sequence (P10826 154-455 limits assumed): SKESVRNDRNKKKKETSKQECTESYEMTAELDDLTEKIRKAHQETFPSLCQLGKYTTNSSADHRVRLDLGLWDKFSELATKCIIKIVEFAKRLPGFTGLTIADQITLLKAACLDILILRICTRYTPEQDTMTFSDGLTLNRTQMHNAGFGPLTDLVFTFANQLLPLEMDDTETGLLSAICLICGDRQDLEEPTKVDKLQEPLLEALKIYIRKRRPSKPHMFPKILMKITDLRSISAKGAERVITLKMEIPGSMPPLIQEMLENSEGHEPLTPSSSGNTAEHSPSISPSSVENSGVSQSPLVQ
# Description: as §1, §2, §3, §4, §5, §6, §7
# RARα = target: T3, RARα (Homo sapiens, UniProt P10276); assay: as above; format: cell-based; conditions: HeLa stable transfectants, ERE-βGlob-Luc-SV-Neo reporter and RARα ER-DBD-puro; 18 hours incubation; apparent Kd; read-out: RARα Kdapp
# T3 sequence (P10276 183-462 limits assumed): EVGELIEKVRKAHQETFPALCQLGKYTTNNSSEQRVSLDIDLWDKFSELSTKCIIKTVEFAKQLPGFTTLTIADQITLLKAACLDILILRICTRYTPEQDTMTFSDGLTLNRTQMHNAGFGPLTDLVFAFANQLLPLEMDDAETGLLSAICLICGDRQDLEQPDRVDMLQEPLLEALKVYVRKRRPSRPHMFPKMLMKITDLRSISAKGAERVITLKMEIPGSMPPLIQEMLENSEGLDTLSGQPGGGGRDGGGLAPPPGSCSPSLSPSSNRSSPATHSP
# Description: as §1, §2, §3, §4, §5, §6, §7
Structure (SMILES),Kd (RARγ),Kd (RARβ),Kd (RARα),melting point
"CCN(CC)c1ccc(C(O)C#Cc2ccc(C(=O)O)cc2)cc1C(C)(C)C (stereo not drawn) [Compound of example 1, 4-[3-(3-tert-butyl-4-diethylaminophenyl)-3-hydroxyprop-1-ynyl]benzoic acid]",37.5 nM,185 nM,625 nM,140 °C
"CN(C)c1ccc(C(O)C#Cc2ccc(C(=O)O)cc2)cc1C(C)(C)C (stereo not drawn) [Compound of example 3, 4-[3-(3-tert-butyl-4-dimethylaminophenyl)-3-hydroxyprop-1-ynyl]benzoic acid]",15 nM,120 nM,250 nM,–
"CC(C)(C)c1cc(C(O)C#Cc2ccc(C(=O)O)cc2)ccc1N1CCCC1 (stereo not drawn) [Compound of example 4, 4-[3-(3-tert-butyl-4-pyrrolidin-1-ylphenyl)-3-hydroxyprop-1-ynyl]benzoic acid]",30 nM,252 nM,1000 nM,–
"CC(C)(C)c1cc(C(O)C#Cc2ccc(C(=O)O)cc2)ccc1N1CCCCC1 (stereo not drawn) [Compound of example 5, 4-[3-(3-tert-butyl-4-piperidin-1-ylphenyl)-3-hydroxyprop-1-ynyl]benzoic acid]",–,2020 nM,4010 nM,–
"CCN(CC)c1ccc(C(O)C#Cc2ccc(C(=O)O)c(O)c2)cc1C(C)(C)C (stereo not drawn) [Compound of example 6, 4-[3-(3-tert-butyl-4-diethylaminophenyl)-3-hydroxyprop-1-ynyl]-2-hydroxybenzoic acid]",60 nM,500 nM,250 nM,–
"CN(C)c1c(Cl)cc(C(O)C#Cc2ccc(C(=O)O)cc2)cc1C(C)(C)C (stereo not drawn) [Compound of example 7, 4-[3-(3-tert-butyl-5-chloro-4-dimethylaminophenyl)-3-hydroxyprop-1-ynyl]benzoic acid]",2 nM,15 nM,120 nM,–
"CN(C)c1c(Cl)cc(C(O)C#Cc2ccc(C(=O)O)c(O)c2)cc1C(C)(C)C (stereo not drawn) [Compound of example 8, 4-[3-(3-tert-butyl-5-chloro-4-dimethylaminophenyl)-3-hydroxyprop-1-ynyl]-2-hydroxybenzoic acid]",4 nM,60 nM,250 nM,–
"CC(C)c1cc(C(O)C#Cc2ccc(C(=O)O)cc2)cc(C(C)C)c1N(C)C (stereo not drawn) [Compound of example 9, 4-[3-(4-Dimethylamino-3,5-diisopropylphenyl)-3-hydroxyprop-1-ynyl]benzoic acid]",0.5 nM,60 nM,60 nM,–
"CC(C)c1cc(C(O)C#Cc2ccc(C(=O)O)c(O)c2)cc(C(C)C)c1N(C)C (stereo not drawn) [Compound of example 10, 4-[3-(4-Dimethylamino-3,5-diisopropylphenyl)-3-hydroxyprop-1-ynyl]-2-hydroxybenzoic acid]",1 nM,120 nM,1000 nM,–
"CCN(CC)c1ccc(C(O)C#Cc2ccc(C(=O)O)cc2)cc1C(C)C (stereo not drawn) [Compound of example 11, 4-[3-(4-diethylamino-3-isopropylphenyl)-3-hydroxyprop-1-ynyl]benzoic acid]",30 nM,60 nM,1000 nM,–
